# Assay results from patent US11944701B2, “Protection of materials by sphingosine based compounds” (STICHTING VU, priority 2012, dated 2024).
# Where two headings read alike, the source gives them in different places.
# What was measured:
# [1] = Erosion test: weight loss of HAP disks after exposure to citric acid; conditions: for protection of HAP: 100 μg/ml in Tris-Tween, 3 hrs
# Description: Dental enamel consists largely of hydroxyapatite crystals (Ca10(PO4)6(OH)2. Sintered at high temperatures, hydroxyapatite discs can be produced with physical characteristics (e.g. hardness and density) resembling those of enamel (Anderson et al, 2004), which can be used to determine erosive properties of solutions (Jensdottir et al, 2005) by measuring weight loss from hydroxyapatite after immersion in an erosive (acidic) solution.
# Hydroxyapatite discs, sintered at 1250° C. and with a relative density of 98% were obtained from Swerea, Stockholm, Sweden. The lateral and bottom surfaces of the discs were covered with nail polish so that one side remained uncoated. Next, discs were cleaned by sanding with sand paper (3M734 P600) rinsed with demineralised water, dried at 37° C. overnight and weighed to determine the initial mass. Hydroxyapatite discs were placed in the wells of 12 well cell culture plates (Greiner bio-one, Frickenhausen, Germany), to which was added 1.5 ml of phytosphingosine (PHS in various concentrations dissolved in saliva buffer (2 mM potassium phosphate, 50 mM KCl, 1 mM CaCl2, 0.1 mM MgCl2, pH 6.8) under gently shaking for 3 hours at 37° C. After three times rinsing with 4 ml saliva buffer to remove unbound PHS, discs were placed in new wells with 4 ml of 0.1 M citric acid (pH=3.0). After 30 minutes citric acid was pipetted off and discs were rinsed 3 times with 4 ml demineralized water, dried overnight at 37° C. and weighted. The difference in weight before and after the erosive treatment was taken as a measure for erosion. The experiments were conducted in triplicate and were repeated at least two times. Formation of saliva pellicle on HAP discs was achieved as follows: saliva was collected without conscious stimulation, as described previously (Navazesh, 1993). Saliva was cleared from cellular debris by centrifugation at 10,000 g for 10 minutes. The supernatant (HWS) was collected and used for coating HAP disks with a salivary pellicle. For this purpose, HAP disks were incubated with 4 ml HWS at 37° C. After 3 hrs, disks were rinsed 3 times with distilled water to remove unbound protein. Subsequently, the protective effect of PHS on saliva-coated HAP was tested as described above for bare HAP.
# Protection of HAP against erosion was determined essentially as described by Jensdottir et al, (2005), by measuring weight loss from HAP disks before and after immersion in an erosive (acidic) solution using a Sartorius GD503 analytical precision scale. For the erosion experiments, the lateral and bottom surfaces of the disks were covered with nail polish leaving the circular upper surface uncoated. Next, disks were cleaned by sanding with fine sand paper (3M734 P600), rinsed with demineralised water, dried at 37° C. overnight and weighed to determine the initial mass. Stock solutions of lipids were prepared in ethanol to a concentration of 5 mg/ml. These stock solutions were diluted further to the desired concentration in the working buffer. Working solutions of PHS were prepared in saliva buffer (2 mM potassium phosphate, 50 mM KCl, 1 mM CaCl2, 0.1 mM MgCl2, pH 6.8) or in 20 mM Tris (pH 6.8) supplemented with 0.1% Tween 20 (Tris-Tween). HAP disks were placed in the wells of 12 well cell culture plates (Greiner bio-one, Frickenhausen, Germany), to which 1.5 ml of the lipid solutions was added and incubated under gentle shaking for 3 hours at 37° C. After three times rinsing with 4 ml of the incubation buffer to remove unbound lipid, disks were incubated with 4 ml of 0.1 M citric acid (pH=3.0). […] The difference in weight before and after the erosive treatment was taken as a measure for erosion. All incubations were conducted in triplicate and each experiment was repeated at least two times.
# Streptococcus gordonii = experiment: Antifouling activity of sphingolipids coated on HA discs; assay type: cell-based; conditions: HA discs coated with 100 μg/ml lipid; 2 hr with bacteria
# Description: (§1) Six different sphingolipids including PHS, PHS phosphate, Sphingosine, Sphinganine, Stearoyl PHS and Sphingomyelin were tested for their antifouling properties against two primary colonizers i.e.—Streptococcus sanguinis and Streptococcus gordonii and a late colonizer, Streptococcus mutans.
# (§2) HA discs were incubated 0/N with 100 μg/ml lipid at 37° C. Subsequently, the discs were washed to remove unbound lipid. Then the lipid-coated HA discs were incubated for 2 hr with 1.5 ml of ˜10^7 cells/ml. After washing, the adherent bacterial cells were desorbed by sonication and transferred to agar plates. After 48 hr CFUs were counted.
# Streptococcus mutans = experiment: as above; assay type: cell-based; conditions: HA discs coated with 100 μg/ml lipid; 2 hr with bacteria
# Description: as §1, §2
# Streptococcus sanguinis = experiment: as above; assay type: cell-based; conditions: HA discs coated with 100 μg/ml lipid; 2 hr with bacteria
# Description: as §1, §2
# [2] = PHS adsorption to HAP (OPA fluorimetry)
# Description: PHS was dissolved in concentrations ranging from 0 to 500 μg/ml in 20 mM Tris buffer supplemented with 0.1% Tween 20 (pH 6.8) (Tris-Tween). Tween 20 was added to keep PHS in solution. Disks were incubated with the PHS solutions for 18 h, and then rinsed with demin water (3 times) to remove unbound PHS. HAP bound PHS was extracted by incubation with 1.5 ml methanol for 90 minutes. Since nail polish dissolved in methanol, in the binding experiments HAP disks were used without nail polish. It was verified that no PHS was adsorbed to the plastic, by conducting control incubations without disks. After evaporation, the residue was dissolved in 250 μl of methanol. To 100 of this solution 25 μl ortho-phtaldialdehyde reagent (OPA, Sigma-Aldrich) to enable fluorimetric quantification of bound PHS. Fluorescence was measured on a Fluostar microplate reader at excitation/emission wavelengths of 380 nm/450 nm. Absolute quantities were determined by reference to a standard curve of PHS. All incubations were conducted in triplicate and the experiment was repeated two times.
# Solubility of PHS = assay type: physicochemical
# [3] = in saliva buffer; cited from earlier work
molecule,measurement,setting,value
Di-myroistyl phosphatidylcholine [reference compound],protection of HAP,[1]; 0.1 M citric acid 30 minutes,did not protect HAP
CCCCCCCCCCCCC/C=C/[C@@H](O)[C@@H](N)CO [sphingosine],protection of HAP,[1]; 0.1 M citric acid 30 minutes,protection that was comparable to that by PHS
4-hydroxysphinganine-1-phosphate [PHS phosphate],protection against subsequent erosive attack by citric acid,[1]; 200 μg/ml in saliva buffer,did not afford protection
CCCCCCCCCCCCCCC[C@@H](O)[C@@H](N)CO [Sphinganine],protection of HAP,[1]; 0.1 M citric acid 30 minutes,protection that was comparable to that by PHS
same,effect of phosphate in the buffer on efficacy,[1]; FIG. 8,"more effective when provided in a buffer not containing, or containing a minimal amount of, phosphate"
same,protection against citric acid,[1]; used in a Tris buffer (FIG. 8),protected against citric acid
same,protection against citric acid,[1]; used in a buffer containing phosphate ions,not when used in a buffer containing phosphate ions
same,reduction in bacterial adherence,Streptococcus gordonii,1.5 log values
same,reduction of adherent bacteria,Streptococcus mutans,3 log
same,reduction in bacterial adherence,Streptococcus sanguinis,2 log value
"CCCCCCCCCCCCCC[C@@H](O)[C@@H](O)[C@@H](N)CO [PHS, phytosphingosine]",effect on the pH of citric acid,[1],no effect
same,protection when present in the erosive fluid,"[1]; 0.1 M citric acid in the presence of 100 ug/ml PHS, 30 minutes, untreated HAP disks",protects against erosion even with untreated HAP disks
same,duration of the protective effect,"[1]; 1 hour exposure to citric acid, 50 μg/ml PHS (FIG. 3)",still protected
same,protection of disks covered with a salivary pellicle (CHWS) versus controls,"[1]; 20 hrs CHWS, then 100 μg/ml PHS in TrisT 3 hrs, 0.1 M citric acid 30 minutes",protected to the same extent
same,protection against dissolution by citric acid relative to the control disks,"[1]; HAP discs pretreated, then 0.1 M citric acid (pH=3) for 30 minutes",more than 80%
same,PHS concentration at which virtually maximal protection was achieved,"[1]; HAP disks incubated 3 hrs with PHS, citric acid 30 minutes",> 20 µg/mL
same,protection of saliva-coated HAP versus uncoated HAP,[1]; HAP disks preincubated with human saliva (salivary pellicle),to the same extent
same,protection at 500 and 50 μg/ml,[1]; PHS 500 and 50 μg/ml,comparable protection
same,protection at 5 ug/ml,[1]; PHS concentration lowered to 5 ug/ml,steep decrease in protection
same,protection with PHS dissolved in Tris-Tween compared with saliva buffer,[1]; PHS dissolved in Tris-Tween,essentially the same protection
same,less weight loss compared to the untreated control disks,"[1]; PHS in saliva buffer, subsequent erosive challenge 0.1 M citric acid (pH=3) 30 minutes",70-80%
same,protection by pre-treatment,"[1]; pretreated 100 ug/ml 3 hours, 0.1 M citric acid (pH=3.0) 30 minutes",protects against the erosive effects of citric acid
same,effect of solvent used for stock solution on protection,"[1]; stock 5 mg/ml in DMSO or ethanol, with or without sonication, 3 hr incubation",No difference
same,binding level at which protection is maximal,"[1]; submaximal binding, 0.1 M citric acid (pH 3.0) 30 minutes",approximately 6 μg per disk
same,PHS adsorbed onto the surface of the disk,"[2]; at maximal adsorption (60 μg/ml and higher), Tris-Tween",approximately 12 μg
same,time to equilibrium of the initial fast phase of binding,"[2]; biphasic time course, gradual increase over the next 15 hrs",≤ 1 h
same,PHS concentration at which maximal adsorption occurred,[2]; in Tris-Tween,≥ 60 µg/mL
same,adsorption to saliva-incubated HAP disks compared to control,"[2]; overnight incubation with saliva, then PHS, control saliva buffer",even higher amounts of PHS adsorbed
same,share of the maximal adsorption level reached,[2]; within 5 minutes,> 65%
same,amount adsorbed,"[2]; within one minute, fixed PHS concentration",substantial amount
same,solubility,"Solubility of PHS; in Tris-Tween, concentration before and after centrifugation 10 minutes 10,000 g",completely soluble
same,solubility,Solubility of PHS; in water,moderately soluble
same,solubility,[3],poorly soluble
"CCCCCCCCCCCCCCCCCC(=O)N[C@@H](CO)[C@H](O)C(O)CCCCCCCCCCCCCC (stereo partly drawn) [Stearoyl PHS, N-stearoyl 4-4-hydroxysphinganine]",antifouling activity (reduction of adherent bacteria),Streptococcus mutans,~2 log CFU/ml
"CCCCCCCCCCCCCCC(O)[C@@H](O)[C@@H](N)COP(=O)(O)O (stereo partly drawn) [PHS phosphate, 4-hydroxysphinganine-1-phosphate]",protection of HAP,[1]; 0.1 M citric acid 30 minutes,protection that was comparable to that by PHS
same,reduction in bacterial adherence,Streptococcus gordonii,1.5 log values
same,antifouling activity (reduction of adherent bacteria),Streptococcus mutans,~2 log CFU/ml
sphingomyelin [reference compound],protection of HAP,[1]; 0.1 M citric acid 30 minutes,did not protect HAP
same,reduction in bacterial adherence,Streptococcus sanguinis,1 log value
